Assay results as given in ChEMBL document CHEMBL5038606 (J Med Chem, 2022).
Converted amounts (≈) assume the structure as drawn.

How the values were obtained:
Plasma = experiment: Anticoagulant activity in human plasma assessed as activated partial thromboplastin time; type: functional
[1] = Metabolic stability in human liver microsomes assessed as half life; type: ADME, Microsome
Coagulation factor XI = Coagulation factor XI (Homo sapiens, UniProt P03951); experiment: Binding affinity to human coagulation factor 11a using L-Pyroglutamyl-L-prolyl-L-arginine p-Nitroaniline as substrate assessed as inhibition constant measured upto 120 mins by spectrophotometric analysis
[2] = Metabolic stability in Sprague-Dawley rat liver microsomes assessed as half life; type: ADME, Microsome; parameters: dose or concentration left out as unconfirmed
[3] = Protein binding in Sprague-Dawley rat plasma assessed as bound fraction; type: ADME, cell-free; parameters: dose or concentration left out as unconfirmed
[4] = Clearance in Sprague-Dawley rat at 1.06 mg/kg, po or 0.53 mg/kg, iv; type: ADME, organism-based; conditions: in vivo
[5] = Half life in Sprague-Dawley rat at 1.06 mg/kg, po or 0.53 mg/kg, iv; type: ADME, organism-based; conditions: in vivo
[6] = Volume of distribution at steady state in Sprague-Dawley rat at 1.06 mg/kg, po or 0.53 mg/kg, iv; type: ADME, organism-based; conditions: in vivo, read-out: Vdss
[7] = AUC in Sprague-Dawley rat at 1.06 mg/kg, po; type: ADME, organism-based; parameters: dose 1.06 mg/kg; conditions: in vivo
[8] = Oral bioavailability in Sprague-Dawley rat at 1.06 mg/kg; type: ADME, organism-based; conditions: in vivo
[9] = Oral bioavailability in Sprague-Dawley rat at 1.10 mg/kg; type: ADME, organism-based; conditions: in vivo, dose 1.1 mg/kg
[10] = Apparent permeability across apical to basolateral side in human Caco2 cells; type: ADME, cell-based; conditions: Caco-2, read-out: permeability
[11] = Clearance in Sprague-Dawley rat at 1.10 mg/kg, po or 0.55 mg/kg, iv; type: ADME, organism-based; conditions: in vivo, dose 1.1 mg/kg
[12] = Half life in Sprague-Dawley rat at 1.10 mg/kg, po or 0.55 mg/kg, iv; type: ADME, organism-based; conditions: in vivo, dose 1.1 mg/kg
[13] = Volume of distribution at steady state in Sprague-Dawley rat at 1.10 mg/kg, po or 0.55 mg/kg, iv; type: ADME, organism-based; conditions: in vivo, dose 1.1 mg/kg, read-out: Vdss
[14] = AUC in Sprague-Dawley rat at 1.10 mg/kg, po; type: ADME, organism-based; parameters: dose 1.1 mg/kg; conditions: in vivo, 1.1 mg/kg
[15] = Fraction unbound in human plasma; type: ADME, cell-free
[16] = Aqueous solubility of the compound at pH 6.5; type: physicochemical; conditions: aqueous medium
[17] = Aqueous solubility of the compound at pH 1.0; type: physicochemical; conditions: aqueous medium

Coagulation factor XI, sequence (P03951 19-387 limits assumed): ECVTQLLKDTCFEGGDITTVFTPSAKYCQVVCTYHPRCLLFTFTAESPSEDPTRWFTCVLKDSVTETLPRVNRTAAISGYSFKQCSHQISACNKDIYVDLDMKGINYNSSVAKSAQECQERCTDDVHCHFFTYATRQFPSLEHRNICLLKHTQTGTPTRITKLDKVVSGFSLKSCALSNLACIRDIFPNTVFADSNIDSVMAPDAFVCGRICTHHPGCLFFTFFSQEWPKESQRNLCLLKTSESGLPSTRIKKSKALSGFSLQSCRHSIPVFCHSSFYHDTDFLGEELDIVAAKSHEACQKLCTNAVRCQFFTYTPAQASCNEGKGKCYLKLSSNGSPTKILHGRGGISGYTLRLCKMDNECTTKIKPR
Coagulation factor XI, sequence (P03951 388-625 limits assumed): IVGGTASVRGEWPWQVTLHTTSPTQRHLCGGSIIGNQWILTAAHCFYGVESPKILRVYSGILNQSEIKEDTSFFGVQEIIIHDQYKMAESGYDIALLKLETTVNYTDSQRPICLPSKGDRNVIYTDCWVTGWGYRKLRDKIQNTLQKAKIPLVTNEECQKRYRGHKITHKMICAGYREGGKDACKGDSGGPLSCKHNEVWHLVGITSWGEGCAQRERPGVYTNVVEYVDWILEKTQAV

C[C@@H]1CCC[C@H](N2CCC(c3cc(Cl)ccc3-n3ccnn3)=CC2=O)c2cc(ccn2)-c2c(cnn2C2CCC2)NC1=O
EC1.5 (Plasma): 3.04 µM | half-life [1]: 0.1 h

C[C@@H]1CCC[C@H](N2CCC(c3cc(Cl)ccc3-n3cc(Cl)nn3)=CC2=O)c2cc(ccn2)-c2c(cnn2C)NC1=O
EC1.5 (Plasma): 0.3 µM | half-life [1]: 1.08 h

C[C@@H]1CCC[C@H](N2CCC(c3cc(Cl)ccc3-n3cc(Cl)nn3)=CC2=O)c2cc(ccn2)-c2c(cnn2C(F)F)NC1=O
Ki (Coagulation factor XI): 0.07 nM | EC1.5 (Plasma): 0.39 µM | half-life [1]: > 2 h | half-life [2]: > 2 h | fraction unbound [3]: 0.06 | clearance [4]: 17 mL/min/kg | half-life [5]: 1.2 h | Vd [6]: 1.4 L/kg | AUC [7]: 0.3 µM·h | bioavailability [8]: 18%

CCn1ncc2c1-c1ccnc(c1)[C@@H](N1CCC(c3cc(Cl)ccc3-n3ccnn3)=CC1=O)CCC[C@@H](C)C(=O)N2
Ki (Coagulation factor XI): 1.3 nM | EC1.5 (Plasma): 0.48 µM | half-life [1]: 0.167 h

C[C@@H]1CCC[C@H](N2CCC(c3cc(Cl)ccc3-n3cccn3)=CC2=O)c2cc(ccn2)-c2c(cnn2C)NC1=O
Ki (Coagulation factor XI): 11 nM | EC1.5 (Plasma): 8.9 µM

C[C@@H]1CCC[C@H](N2CCC(c3cc(Cl)ccc3-n3ccnn3)=CC2=O)c2cc(ccn2)-c2c(cnn2C(F)F)NC1=O
bioavailability [9]: 7% | EC1.5 (Plasma): 0.45 µM | half-life [1]: 1.67 h | Papp A→B [10]: < 1.5 ×10⁻⁶ cm/s | clearance [11]: 42 mL/min/kg | half-life [12]: 0.5 h | Vd [13]: 1.2 L/kg | half-life [2]: > 2 h | fraction unbound [3]: 0.249 | AUC [14]: 0.068 µM·h

C[C@@H]1CCC[C@H](N2CCC(c3c(F)ccc(Cl)c3F)=CC2=O)c2cc(ccn2)-c2[nH]ncc2NC1=O
Ki (Coagulation factor XI): 548 nM

C[C@@H]1CCC[C@H](N2CCC(c3c(F)ccc(Cl)c3F)=CC2=O)c2cc(ccn2)-c2c(cnn2C)NC1=O
fraction unbound [15]: 0.007 | solubility [16]: 0.15 µg/mL (≈ 0.285 µM) | solubility [17]: 3 µg/mL (≈ 5.7 µM)
